Values after ≈ are worked out from the molar mass of the structure shown.
How the values were obtained:
[1] = Effect of arylcarboxylic acid on solubility of pyridonecarboxylic acid - 1 (Table 1); format: physicochemical; conditions: 0.1% aqueous sodium dihydrogenphosphate, 25° C., one week
Procedure: Experimental Example 1: Effect of arylcarboxylic acid on solubility of pyridonecarboxylic acid - 1
(§1) To a 0.1% aqueous sodium dihydrogenphosphate solution (100 ml) containing pranoprofen, ibuprofen or bromfenac was added norfloxacin or enoxacin in excess, and the pH thereof was adjusted to 7-8 with hydrochloric acid or sodium hydroxide. The mixture was shaken for one week at 25° C. and filtered through a 0.45 μm membrane filter, which was followed by the determination of a norfloxacin or enoxacin content by high performance liquid chromatography.

[2] = Effect of arylcarboxylic acid on solubility of pyridonecarboxylic acid - 2 (Table 2); format: physicochemical; conditions: 0.1% aqueous sodium dihydrogenphosphate, 25° C., one week
Procedure: Experimental Example 2: Effect of arylcarboxylic acid on solubility of pyridonecarboxylic acid - 2
as §1, with “2-naphthoic acid, 2-naphthylacetic acid” for “pranoprofen, ibuprofen”, “2-naphthoxyacetic acid” for “bromfenac”, “8-9” for “7-8”

[3] = Increase of solubility by addition of arylcarboxylic acid (Tables 1 to 3); format: physicochemical; conditions: about, addition of at least one arylcarboxylic acid (pranoprofen, ibuprofen, diclofenac, bromfenac, 2-naphthoic, 2-naphthylacetic, 2-naphthoxyacetic acid)
Procedure: as §1
as §1, with “2-naphthoic acid, 2-naphthylacetic acid” for “pranoprofen, ibuprofen”, “2-naphthoxyacetic acid” for “bromfenac”, “8-9” for “7-8”
as §1, with “ibuprofen, diclofenac, bromfenac, 2-naphthoic acid, 2-naphthylacetic acid” for “ibuprofen”, “2-naphthoxyacetic acid” for “bromfenac”, “lomefloxacin” for “norfloxacin or enoxacin”, “8-9” for “7-8”

[4] = Effect of arylcarboxylic acid on solubility of pyridonecarboxylic acid - 3 (Table 3); format: physicochemical; conditions: 0.1% aqueous sodium dihydrogenphosphate, 25° C., one week
Procedure: Experimental Example 3: Effect of arylcarboxylic acid on solubility of pyridonecarboxylic acid - 3
as §1, with “ibuprofen, diclofenac, bromfenac, 2-naphthoic acid, 2-naphthylacetic acid” for “ibuprofen”, “2-naphthoxyacetic acid” for “bromfenac”, “lomefloxacin” for “norfloxacin or enoxacin”, “8-9” for “7-8”

[5] = pH 7, bromfenac added, pH 7, 0.1% aqueous sodium dihydrogenphosphate
[6] = pH 7, ibuprofen added, pH 7, 0.1% aqueous sodium dihydrogenphosphate
[7] = pH 7, pranoprofen added, pH 7, 0.1% aqueous sodium dihydrogenphosphate
[8] = pH 7, without addition, pH 7, 0.1% aqueous sodium dihydrogenphosphate
[9] = pH 8, bromfenac added, pH 8, 0.1% aqueous sodium dihydrogenphosphate
[10] = pH 8, ibuprofen added, pH 8, 0.1% aqueous sodium dihydrogenphosphate
[11] = pH 8, pranoprofen added, pH 8, 0.1% aqueous sodium dihydrogenphosphate
[12] = pH 8, without addition, pH 8, 0.1% aqueous sodium dihydrogenphosphate
[13] = pH 8, 2-naphthoic acid added, pH 8, 0.1% aqueous sodium dihydrogenphosphate
[14] = pH 8, 2-naphthoxyacetic acid added, pH 8, 0.1% aqueous sodium dihydrogenphosphate
[15] = pH 8, 2-naphthylacetic acid added, pH 8, 0.1% aqueous sodium dihydrogenphosphate
[16] = pH 9, 2-naphthoic acid added, pH 9, 0.1% aqueous sodium dihydrogenphosphate
[17] = pH 9, 2-naphthoxyacetic acid added, pH 9, 0.1% aqueous sodium dihydrogenphosphate
[18] = pH 9, 2-naphthylacetic acid added, pH 9, 0.1% aqueous sodium dihydrogenphosphate
[19] = pH 9, without addition, pH 9, 0.1% aqueous sodium dihydrogenphosphate

Row | SMILES | solubility thermodynamic at 168 h [1, 5] [µg/mL] | solubility thermodynamic at 168 h [1, 6] [µg/mL] | solubility thermodynamic at 168 h [1, 7] [µg/mL] | solubility thermodynamic at 168 h [1, 8] [µg/mL] | solubility thermodynamic at 168 h [1, 9] [µg/mL] | solubility thermodynamic at 168 h [1, 10] [µg/mL] | solubility thermodynamic at 168 h [1, 11] [µg/mL] | solubility thermodynamic at 168 h [1, 12] [µg/mL] | solubility thermodynamic at 168 h [2, 13] [µg/mL] | solubility thermodynamic at 168 h [2, 14] [µg/mL] | solubility thermodynamic at 168 h [2, 15] [µg/mL] | solubility thermodynamic at 168 h [2, 12] [µg/mL] | solubility thermodynamic at 168 h [2, 16] [µg/mL] | solubility thermodynamic at 168 h [2, 17] [µg/mL] | solubility thermodynamic at 168 h [2, 18] [µg/mL] | solubility thermodynamic at 168 h [2, 19] [µg/mL] | increase of solubility by addition of arylcarboxylic acid [3] | other results
1 | CCn1cc(C(=O)O)c(=O)c2cc(F)c(N3CCNCC3)nc21 [enoxacin, 1-ethyl-6-fluoro-1,4-dihydro-4-oxo-7-(1-piperazinyl)-1,8-naphthyridine-3-carboxylic acid] | 320 (≈ 999 µM) | 300 (≈ 937 µM) | 780 (≈ 2440 µM) | 260 (≈ 812 µM) | 350 (≈ 1090 µM) | 280 (≈ 874 µM) | 630 (≈ 1970 µM) | 250 (≈ 780 µM) | 540 (≈ 1690 µM) | 470 (≈ 1470 µM) | 420 (≈ 1310 µM) | 250 (≈ 780 µM) | 1190 (≈ 3710 µM) | 990 (≈ 3090 µM) | 830 (≈ 2590 µM) | 710 (≈ 2220 µM) | 1.5-3 times | solubility (physchem; 0.1% phosphate buffer, pH 7): 280 µg/mL (≈ 874 µM); solubility (physchem; 1.6% borate buffer, pH 6): 1700 µg/mL (≈ 5310 µM)
2 | CCn1cc(C(=O)O)c(=O)c2cc(F)c(N3CCNC(C)C3)c(F)c21 (stereo not shown) [lomefloxacin, 1-ethyl-6,8-difluoro-1,4-dihydro-7-(3-methyl-1-piperazinyl)-4-oxo-3-quinolinecarboxylic acid] |  |  |  |  |  |  |  |  |  |  |  |  |  |  |  |  | 1.5-3 times | solubility thermodynamic at 168 h [4, 13]: 2300 µg/mL (≈ 6550 µM); solubility thermodynamic at 168 h [4, 14]: 2040 µg/mL (≈ 5810 µM); solubility thermodynamic at 168 h [4, 15]: 1800 µg/mL (≈ 5120 µM); solubility thermodynamic at 168 h ([4]; pH 8, diclofenac added, pH 8, 0.1% aqueous sodium dihydrogenphosphate): 1390 µg/mL (≈ 3960 µM); solubility thermodynamic at 168 h [4, 11]: 2140 µg/mL (≈ 6090 µM); solubility thermodynamic at 168 h [4, 12]: 1180 µg/mL (≈ 3360 µM); solubility thermodynamic at 168 h ([4]; pH 9, bromfenac added, pH 9, 0.1% aqueous sodium dihydrogenphosphate): 4700 µg/mL (≈ 13400 µM); solubility thermodynamic at 168 h ([4]; pH 9, diclofenac added, pH 9, 0.1% aqueous sodium dihydrogenphosphate): 3330 µg/mL (≈ 9480 µM); solubility thermodynamic at 168 h ([4]; pH 9, ibuprofen added, pH 9, 0.1% aqueous sodium dihydrogenphosphate): 3500 µg/mL (≈ 9960 µM); solubility thermodynamic at 168 h [4, 19]: 3000 µg/mL (≈ 8540 µM)
3 | CCn1cc(C(=O)O)c(=O)c2cc(F)c(N3CCNCC3)cc21 [norfloxacin, 1-ethyl-6-fluoro-1,4-dihydro-4-oxo-7-(1-piperazinyl)-3-quinolinecarboxylic acid] | 410 (≈ 1280 µM) | 430 (≈ 1350 µM) | 1810 (≈ 5670 µM) | 400 (≈ 1250 µM) | 540 (≈ 1690 µM) | 420 (≈ 1320 µM) | 810 (≈ 2540 µM) | 360 (≈ 1130 µM) | 920 (≈ 2880 µM) | 750 (≈ 2350 µM) | 580 (≈ 1820 µM) | 360 (≈ 1130 µM) | 1590 (≈ 4980 µM) | 1600 (≈ 5010 µM) | 2060 (≈ 6450 µM) | 1060 (≈ 3320 µM) | 1.5-3 times | solubility (physchem; 0.1% phosphate buffer, pH 8): 360 µg/mL (≈ 1130 µM); solubility (physchem; 1.6% borate buffer, pH 7): 390 µg/mL (≈ 1220 µM)

From patent US5942508A, “Method for solubilizing pyridonecarboxylic acid solubilizer thereof and aqueous solution containing solubilized pyridonecarboxylic acid” (Senju Pharmaceutical Co., Ltd., priority 1997, dated 1999)
